These are literature values, as cited in patent publication US20080103124A1, “Cefdinir-containing pharmaceutical composition” (ASTELLAS PHARMA INC., priority 2006, published 2008).

For the data set the following is noted: human beings.

Like-named read-outs stand apart in the source and are kept apart here.

For `C=CC1=C(C(=O)O)N2C(=O)[C@@H](NC(=O)/C(=N\O)c3csc(N)n3)[C@H]2SC1` [cefdinir], the absolute bioavailability is 21% (following administration of a 300 mg capsule) and 25% (following administration of an oral suspension of 250 mg/5 mL).
